Reference: EP1219638A2, “G-protein coupled receptors having homology to the P2Y purinoreceptor 1 (P2Y1)” (Pfizer Limited, priority 2000, dated 2002)

Test system: PFI-019, SEQ ID NO: 2
Assay: FLIPR functional cell-based assay for agonist activation (Fluo3 fluorescence), transiently transfected 293 cells expressing mouse Gα15
Set-up: species or system human
Details: PFI-019-transfected 293 cells (HEK 293 expressing mouse Gα15); fluorescence intensity versus time; concentration not given; Figures 3-6
Procedure: Fluorescence Imaging Plate Reader (FLIPR®) technology was employed as a means to detect activation of PFI-019 by agonists in a cell-based assay.
5 x 10^6 Human Embryonic Kidney (HEK) 293 cells expressing the mouse Gα15 gene (from here on called '293 cells'), were transiently transfected with 7.5 µg of PFI-019 (contained within the pcDNA4HIS-max-TOPO (Invitrogen) plasmid) vector, or vector alone, using Lipofectamine Plus® reagent (Gibco BRL) as per the manufacturer's protocol. The plasmid pcDNA4HIS-max-TOPO was used as it contains elements that up-regulate the level of gene transcription over standard pcDNA3.1 vectors. 24 hrs post-transfection, the cells were detached from the flask using Trypsin/EDTA solution (LTI) and seeded into a black sided, Poly-D-lysine-treated, 96-well plate (Becton Dickinson) at 5 x 10^4 cells/well density. The plates were left overnight to allow the cells to adhere to the bottom of the wells. The medium was removed from the cells and replaced with 100 µl warm (37°C) dye loading solution (50 µg Fluo3 (Molecular Probes) in 20 µl DMSO + 20% pluronic acid in DMSO, added to 11 ml Dulbecco's Modified Eagles Medium containing 1x Probenecid (100x Probenecid - 0.71 g Probenecid was dissolved in 5 ml 1M NaOH and 5 ml Dulbeccos' Phosphate Buffered Saline (PBS), per plate; Probenecid (Molecular Probes) inhibits activity of the anion transport protein, thus improving dye loading). The plates were then incubated for 1 hr at 37°C. Plates were subsequently washed with 250 µl of wash buffer per well (5 ml 100x Probenecid stock + 495 ml PBS, pH 7.4) 4 times. The plates were returned to the 37°C/5%CO2 incubator for 30 mins prior to processing within the FLIPR® instrument. The FLIPR® processing involved reading the fluorescence for all samples for 2 minutes; during this time the fluorescence baseline was determined for the first 10 seconds. The desired amount of compound was then automatically transferred to the wells, and the fluorescence was continuously monitored for the remainder of the time. All compounds were diluted in wash buffer
Using methodology as described in detail above, purinoceptor agonist compounds were identified as being able to functionally activate PFI-019.
Figures 3, 4, 5 and 6 show the response of PFI-019-transfected 293 cells to 2-chloroadenosine triphosphate tetrasodium (2-chloro-ATP; Fig. 3), 2-Methylthioadenosine triphosphate tetrasodium (2-methyl-thio-ATP; Fig. 4;); 2-Methylthioadenosine diphosphate trisodium (2-methyl-thio-ADP, Fig. 5) and Uridine triphosphate (Fig. 6). […] All compounds were purchased from Sigma.

Question: How did the “stimulation of PFI-019” value turn out when `Nc1nc(Cl)nc2c1ncn2[C@@H]1O[C@H](COP(=O)([O-])OP(=O)([O-])OP(=O)([O-])[O-])[C@@H](O)[C@H]1O.[Na+].[Na+].[Na+].[Na+]` [2-chloro-ATP, 2-chloroadenosine triphosphate tetrasodium] was run?
Answer: Its value is “stimulation”.

Question: For `CSc1nc(N)c2ncn([C@@H]3O[C@H](COP(=O)(O)OP(=O)(O)O)[C@@H](O)[C@H]3O)c2n1` [2-methyl-thio-ADP, 2-Methylthioadenosine diphosphate trisodium], which “stimulation of PFI-019” value is on record?
Answer: Its value is “stimulation”.

Question: How did the “stimulation of PFI-019” value turn out when `CSc1nc(N)c2ncn([C@@H]3O[C@H](COP(=O)(O)OP(=O)(O)OP(=O)(O)O)[C@@H](O)[C@H]3O)c2n1` [2-methyl-thio-ATP, 2-Methylthioadenosine triphosphate tetrasodium] was run?
Answer: Its value is “stimulation”.

Question: Which “stimulation of PFI-019” value does the source give for `O=c1ccn([C@@H]2O[C@H](COP(=O)(O)OP(=O)(O)OP(=O)(O)O)[C@@H](O)[C@H]2O)c(=O)[nH]1` [UTP, Uridine triphosphate] here?
Answer: Its value is “stimulation”.
